Measured values taken from US7173004B2, “Macrocyclic isoquinoline peptide inhibitors of hepatitis C virus” (Bristol-Myers Squibb Company, priority 2003, dated 2007).

Test system: HCV replicon (HCV 1b-377-neo replicon cells, Huh7)
Test: HCV replicon cell-based FRET assay
Details: Hepatitis C virus, Huh-7
Outline: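 Huh7 cells carrying a neo-selectable genotype 1b HCV replicon (~3,000 RNA copies/cell) were seeded at 1.5×10^4 cells/well and treated 4 days at 37 °C (0.5% DMSO final). CC50 was read by alamar Blue (4 h, ex 530/em 580 nm). Lysates with 10 μM EDANS/DABCYL NS3 protease FRET peptide were read kinetically (ex 340/em 490 nm, 25 °C, ~15 min) for % inhibition.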

Row | SMILES | EC50
1 | COc1ccc2c(OC3CC4C(=O)NC5(C(=O)NS(=O)(=O)C6CC6)CC5C=CCCCOCC(NC(=O)OC(C)C)C(=O)N4C3)nc(-c3ccc(N(C)C)cc3)cc2c1 (stereo not shown) [Compound 109] | < 50 nM
2 | COc1ccc2c(OC3CC4C(=O)NC5(C(=O)NS(=O)(=O)C6CC6)CC5C=CCOCCCC(NC(=O)OC5CCCC5)C(=O)N4C3)nc(-c3ccccc3)cc2c1 (stereo not shown) [Compound 99] | < 50 nM
3 | COc1ccc2c(OC3CC4C(=O)NC5(C(=O)NS(=O)(=O)C6CC6)CC5C=CCCCOCC(NC(=O)OCC(C)(C)C)C(=O)N4C3)nc(-c3ccccc3)cc2c1 (stereo not shown) [Compound 95] | < 50 nM
4 | COc1ccc2c(O[C@@H]3C[C@H]4C(=O)N[C@]5(C(=O)NS(=O)(=O)C6CC6)C[C@H]5/C=C\COCC[C@H](NC(=O)OC(C)(C)C)C(=O)N4C3)nccc2c1 [Compound 141, [(Z)-(1S,4R,13S,17R)-4-cyclopropanesulfonylaminocarbonyl-17-(6-methoxy-isoquinolin-1-yloxy)-2,14-dioxo-10-oxa-3,15-diaza-tricyclo[13.3.0.0^4,6]octadec-7-en-13-yl]-carbamic acid tert-butyl ester] | 500 to 5000 nM
5 | O=CNC1CCCCCC=CC2CC2(C(=O)NS(=O)(=O)C2CC2)NC(=O)C2CC(Oc3nccc4ccccc34)CN2C1=O (stereo not shown) [Compound 119] | 50 to 500 nM
6 | COc1ccc2c(OC3CC4C(=O)NC5(C(=O)NS(=O)(=O)C6CC6)CC5C=CCCCOCC(NC(=O)NC(C)(C)C)C(=O)N4C3)nccc2c1 (stereo not shown) [Compound 86] | < 50 nM
7 | COc1ccc2c(OC3CC4C(=O)NC5(C(=O)NS(=O)(=O)C6CC6)CC5C=CCCCOCC(NC(=O)NC(C)(C)C)C(=O)N4C3)nc(-c3ccccc3)cc2c1 (stereo not shown) [Compound 92] | < 50 nM
8 | COc1ccc2c(OC3CC4C(=O)NC5(C(=O)NS(=O)(=O)C6CC6)CC5C=CCCCOCC(NC(=O)OC5CCCC5)C(=O)N4C3)nc(-c3ccc(N(C)C)cc3)cc2c1 (stereo not shown) [Compound 110] | < 50 nM
9 | COc1ccc2c(O[C@@H]3C[C@H]4C(=O)N[C@]5(C(=O)NS(=O)(=O)C6CC6)C[C@H]5/C=C\CCCSC(C)(C)[C@H](NC(=O)OC(C)(C)C)C(=O)N4C3)nccc2c1 [Compound 80, (1S,4R,6S,14R,18R)-[7-cis-4-Cyclopropanesulfonylaminocarbonyl-13,13-dimethyl-18-(6-methoxyisoquinolin-1-yloxy)-2,15-dioxo-12-thia-3,16-diaza-tricyclo[14.3.0.0^4,6]nonadec-7-en-14-yl]carbamic acid, tert-butyl ester] | 50 to 500 nM
10 | COc1ccc2c(OC3CC4C(=O)NC5(C(=O)NS(=O)(=O)C6CC6)CC5C=CCCCCCC(NC(=O)OC(C)(C)C)C(=O)N4C3)nccc2c1OC (stereo not shown) [Compound 134] | < 50 nM
